Test results reported in patent US10597388B2, “Pyridazinone herbicides” (FMC CORPORATION, priority 2014, dated 2020).

Key:
Assay type in all cases: in vivo
[1] = test system: blackgrass (Alopecurus myosuroides); experiment: Test C greenhouse herbicide test, pre- and postemergence
How it was run: (§1)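 Seeds sown in loam–sand blend treated preemergence; plants in peat-based medium sprayed postemergence at 2–18 cm (1- to 4-leaf stage); chemicals in non-phytotoxic solvent with surfactant. Greenhouse 13–15 d, then visual rating versus controls on 0–100 scale (0 no effect, 100 complete control).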

[2] = test system: velvetleaf (Abutilon theophrasti); experiment: as above
How it was run: as §1

[3] = test system: pigweed (Amaranthus retroflexus); experiment: as above
How it was run: as §1

[4] = test system: waterhemp (common waterhemp, Amaranthus rudis); experiment: as above
How it was run: as §1

[5] = test system: nutsedge, yellow (yellow nutsedge, Cyperus esculentus); experiment: as above
How it was run: as §1

corn (Zea mays) [6] = experiment: as above
How it was run: as §1

soybean (Glycine max) = experiment: as above
How it was run: as §1

corn (Zea mays) [7] = experiment: Test A greenhouse herbicide test, pre- and postemergence; settings: Postemergence
How it was run: (§2)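 Seeds in loam–sand blend received a preemergence directed soil spray; plants at 2–10 cm, one- to two-leaf stage, received postemergence sprays. Compounds in a non-phytotoxic solvent with surfactant. After about 10 d in a greenhouse, injury rated visually versus untreated controls on a 0–100 scale (100 = complete control).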

[8] = test system: foxtail, giant (giant foxtail, Setaria faberii); experiment: as above
How it was run: as §2

[9] = test system: ryegrass, Italian (Italian ryegrass, Lolium multiflorum); experiment: as above
How it was run: as §2

[10] = test system: wheat (Triticum aestivum); experiment: as above; settings: Postemergence
How it was run: as §2

[11] = Postemergence, 31 g ai/ha, 0 to 100 scale (0 no effect, 100 complete control)
[12] = Postemergence, 125 g ai/ha, scale 0 to 100, 0 is no effect, 100 is complete control
[13] = Postemergence, 250 g ai/ha, scale 0 to 100, 0 no effect, 100 complete control, 13 to 15 d
[14] = Preemergence, 31 g ai/ha, scale 0 to 100, 0 is no effect, 100 is complete control
[15] = Preemergence, 62 g ai/ha, scale 0 to 100, 0 is no effect, 100 is complete control
[16] = Preemergence, 125 g ai/ha, scale 0 to 100, 0 is no effect, 100 is complete control
[17] = Preemergence, 250 g ai/ha, scale 0 to 100, 0 no effect, 100 complete control
[18] = postemergence, 62 g ai/ha, scale 0 to 100, 0 no effect, 100 complete control
[19] = 125 g ai/ha, 0 to 100 scale where 0 is no effect and 100 is complete control
[20] = 500 g ai/ha, 0 to 100 scale, 0 is no effect, 100 is complete control
[21] = Postemergence, 125 g ai/ha, 0 to 100 scale where 0 is no effect and 100 is complete control
[22] = Postemergence, 500 g ai/ha, 0 to 100 scale, 0 is no effect, 100 is complete control
[23] = Preemergence, 125 g ai/ha, 0 to 100 scale where 0 is no effect and 100 is complete control
[24] = Preemergence, 500 g ai/ha, 0 to 100 scale, 0 no effect, 100 complete control
[25] = Postemergence, 31 g ai/ha, scale 0 to 100 (0 no effect, 100 complete control)
[26] = 500 g ai/ha, visual rating after approx. 10 d, 0 to 100 scale (0 no effect, 100 complete control)
[27] = Postemergence, 500 g ai/ha, visual rating after approx. 10 d, 0 to 100 scale (0 no effect, 100 complete control)
[28] = Preemergence, 500 g ai/ha, 0 to 100 scale where 0 is no effect and 100 is complete control

## CCc1sc2c(C)cc(C)cc2c1-c1c(O)c(C)nn(C)c1=O [Compound 57]
[1]; [11]
  Blackgrass plant response rating: 5
[1]; [12]
  Plant response rating, Blackgrass: 5
[1]; [13]
  Plant response rating, Blackgrass: 25
[1]; [14]
  Plant response rating, Blackgrass: 30
[1]; [15]
  Plant response rating, Blackgrass: 60
[1]; [16]
  Plant response rating, Blackgrass: 70
[1]; [17]
  Blackgrass plant response rating: 80
[1]; [18]
  Blackgrass plant response rating: 5
[2]; [11]
  Velvetleaf plant response rating: 90
[2]; [12]
  Plant response rating, Velvetleaf: 100
[2]; [13]
  Plant response rating, Velvetleaf: 100
[2]; [14]
  Plant response rating, Velvetleaf: 50
[2]; [15]
  Plant response rating, Velvetleaf: 80
[2]; [16]
  Plant response rating, Velvetleaf: 95
[2]; [17]
  Velvetleaf plant response rating: 100
[2]; [18]
  Velvetleaf plant response rating: 95
[3]; [11]
  Pigweed plant response rating: 60
[3]; [12]
  Plant response rating, Pigweed: 85
[3]; [13]
  Plant response rating, Pigweed: 100
[3]; [14]
  Plant response rating, Pigweed: 100
[3]; [15]
  Plant response rating, Pigweed: 100
[3]; [16]
  Plant response rating, Pigweed: 100
[3]; [17]
  Pigweed plant response rating: 100
[3]; [18]
  Pigweed plant response rating: 80
[4]; [11]
  Waterhemp plant response rating: 50
[4]; [12]
  Plant response rating, Waterhemp: 85
[4]; [13]
  Plant response rating, Waterhemp: 100
[4]; [14]
  Plant response rating, Waterhemp: 90
[4]; [15]
  Plant response rating, Waterhemp: 98
[4]; [16]
  Plant response rating, Waterhemp: 100
[4]; [17]
  Waterhemp plant response rating: 100
[4]; [18]
  Waterhemp plant response rating: 65
[5]; [11]
  Nutsedge, Yellow plant response rating: 90
[5]; [12]
  Plant response rating, Nutsedge, Yellow: 90
[5]; [13]
  Plant response rating, Nutsedge, Yellow: 90
[5]; [14]
  Plant response rating, Nutsedge, Yellow: 10
[5]; [15]
  Plant response rating, Nutsedge, Yellow: 30
[5]; [16]
  Plant response rating, Nutsedge, Yellow: 90
[5]; [17]
  Nutsedge, Yellow plant response rating: 95
[5]; [18]
  Nutsedge, Yellow plant response rating: 90
Corn (Zea mays) [6]; [11]
  Corn plant response rating: 0
Corn (Zea mays) [6]; [12]
  Plant response rating, Corn: 5
Corn (Zea mays) [6]; [13]
  Plant response rating, Corn: 10
Corn (Zea mays) [6]; [14]
  Plant response rating, Corn: 0
Corn (Zea mays) [6]; [16]
  Plant response rating, Corn: 0
Corn (Zea mays) [6]; [17]
  Corn plant response rating: 35
Corn (Zea mays) [6]; [18]
  Corn plant response rating: 5
Soybean (Glycine max); [11]
  Soybean plant response rating: 0
Soybean (Glycine max); [12]
  Plant response rating, Soybean: 0
Soybean (Glycine max); [13]
  Plant response rating, Soybean: 5
Soybean (Glycine max); [14]
  Plant response rating, Soybean: 0
Soybean (Glycine max); [15]
  Plant response rating, Soybean: 0
Soybean (Glycine max); [16]
  Plant response rating, Soybean: 0
Soybean (Glycine max); [17]
  Soybean plant response rating: 0
Soybean (Glycine max); [18]
  Soybean plant response rating: 0
Corn (Zea mays) [7]; [19]
  Plant response rating, Corn: 20
Corn (Zea mays) [7]; [20]
  Corn plant response rating: 30
[8]; [21]
  Plant response rating, Foxtail, Giant: 80
[8]; [22]
  Foxtail, Giant plant response rating: 90
[8]; [23]
  Foxtail, Giant plant response rating: 100
[8]; [24]
  Plant response rating, Foxtail, Giant: 100
[9]; [21]
  Plant response rating, Ryegrass, Italian: 70
[9]; [22]
  Ryegrass, Italian plant response rating: 90
[9]; [23]
  Ryegrass, Italian plant response rating: 90
[9]; [24]
  Plant response rating, Ryegrass, Italian: 100
[10]; [19]
  Plant response rating, Wheat: 0
[10]; [20]
  Wheat plant response rating: 10

## Cc1nn(C)c(=O)c(-c2c(C)sc3ccc(C(F)(F)F)cc23)c1O [Compound 121]
[1]; [25]
  Plant response rating, Blackgrass: 0
[1]; [12]
  Plant response rating, Blackgrass: 15
[1]; [13]
  Plant response rating, Blackgrass: 50
[1]; [14]
  Plant response rating, Blackgrass: 10
[1]; [15]
  Plant response rating, Blackgrass: 45
[1]; [16]
  Plant response rating, Blackgrass: 45
[1]; [17]
  Blackgrass plant response rating: 60
[1]; [18]
  Blackgrass plant response rating: 15
[2]; [25]
  Plant response rating, Velvetleaf: 10
[2]; [12]
  Plant response rating, Velvetleaf: 75
[2]; [13]
  Plant response rating, Velvetleaf: 80
[2]; [14]
  Plant response rating, Velvetleaf: 60
[2]; [15]
  Plant response rating, Velvetleaf: 75
[2]; [16]
  Plant response rating, Velvetleaf: 85
[2]; [17]
  Velvetleaf plant response rating: 95
[3]; [25]
  Plant response rating, Pigweed: 75
[3]; [12]
  Plant response rating, Pigweed: 90
[3]; [13]
  Plant response rating, Pigweed: 98
[3]; [14]
  Plant response rating, Pigweed: 100
[3]; [15]
  Plant response rating, Pigweed: 98
[3]; [16]
  Plant response rating, Pigweed: 90
[3]; [17]
  Pigweed plant response rating: 100
[4]; [25]
  Plant response rating, Waterhemp: 60
[4]; [12]
  Plant response rating, Waterhemp: 75
[4]; [13]
  Plant response rating, Waterhemp: 70
[4]; [14]
  Plant response rating, Waterhemp: 70
[4]; [15]
  Plant response rating, Waterhemp: 95
[4]; [16]
  Plant response rating, Waterhemp: 85
[4]; [17]
  Waterhemp plant response rating: 100
[5]; [25]
  Plant response rating, Nutsedge, Yellow: 45
[5]; [12]
  Plant response rating, Nutsedge, Yellow: 85
[5]; [13]
  Plant response rating, Nutsedge, Yellow: 75
[5]; [14]
  Plant response rating, Nutsedge, Yellow: 10
[5]; [15]
  Plant response rating, Nutsedge, Yellow: 25
[5]; [16]
  Plant response rating, Nutsedge, Yellow: 20
[5]; [17]
  Nutsedge, Yellow plant response rating: 50
Corn (Zea mays) [6]; [25]
  Plant response rating, Corn: 0
Corn (Zea mays) [6]; [12]
  Plant response rating, Corn: 5
Corn (Zea mays) [6]; [13]
  Plant response rating, Corn: 5
Corn (Zea mays) [6]; [14]
  Plant response rating, Corn: 0
Corn (Zea mays) [6]; [15]
  Plant response rating, Corn: 0
Corn (Zea mays) [6]; [16]
  Plant response rating, Corn: 0
Corn (Zea mays) [6]; [17]
  Corn plant response rating: 5
Corn (Zea mays) [6]; [18]
  Corn plant response rating: 5
Soybean (Glycine max); [25]
  Plant response rating, Soybean: 0
Soybean (Glycine max); [12]
  Plant response rating, Soybean: 0
Soybean (Glycine max); [13]
  Plant response rating, Soybean: 0
Soybean (Glycine max); [14]
  Plant response rating, Soybean: 0
Soybean (Glycine max); [15]
  Plant response rating, Soybean: 0
Soybean (Glycine max); [16]
  Plant response rating, Soybean: 0
Soybean (Glycine max); [17]
  Soybean plant response rating: 0
Corn (Zea mays) [7]; [19]
  Plant response rating, Corn: 20
Corn (Zea mays) [7]; [26]
  Plant response rating, Corn: 20
[8]; [21]
  Plant response rating, Foxtail, Giant: 60
[8]; [27]
  Plant response rating, Foxtail, Giant: 80
[8]; [23]
  Foxtail, Giant plant response rating: 80
[8]; [28]
  Plant response rating, Foxtail, Giant: 80
[9]; [21]
  Plant response rating, Ryegrass, Italian: 90
[9]; [27]
  Plant response rating, Ryegrass, Italian: 100
[9]; [23]
  Ryegrass, Italian plant response rating: 80
[9]; [28]
  Plant response rating, Ryegrass, Italian: 90
[10]; [19]
  Plant response rating, Wheat: 0
[10]; [26]
  Plant response rating, Wheat: 20
